From patent publication US8802597B2, “Herbicidal pyrimidines” (E I du Pont de Nemours and Company, priority 2003, dated 2014)

Legend:
Assay type in all cases: in vivo
[1] = tested on: chickweed (Stellaria media); test: Test C postemergence
Outline: (§1)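 Greenhouse pot test: seeds treated preemergence, or plants at 2–18 cm (1- to 4-leaf stage) treated postemergence, with compound in non-phytotoxic solvent plus surfactant. Visual rating versus untreated controls after 12–14 days, scale 0 (no effect) to 100 (complete control); dash means not tested.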

[2] = tested on: crabgrass (Digitaria sanguinalis); test: Test A pre/postemergence
Outline: (§2)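 Soil: loam blended with sand. Formulation: non-phytotoxic solvent mixture with surfactant. Timing: preemergence soil spray plus concurrent postemergence spray (plants 2–10 cm, 1–2 leaves). Readout: visual injury versus untreated controls at ~10 days, 0–100.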

[3] = tested on: morningglory (Ipomoea spp.); test: Test A pre/postemergence
Outline: as §2

[4] = tested on: barnyardgrass (Echinochloa crus-galli); test: Test A pre/postemergence
Outline: as §2

[5] = tested on: velvetleaf (Abutilon theophrasti); test: Test A pre/postemergence
Outline: as §2

[6] = tested on: redroot pigweed (Amaranthus retroflexus); test: Test A pre/postemergence
Outline: as §2

[7] = tested on: giant foxtail (Setaria faberi); test: Test A pre/postemergence
Outline: as §2

[8] = tested on: soybean (Glycine max); test: Test C pre/postemergence; details: for Plant response rating, Soybean: Preemergence, scale 0 to 100, 0 no effect, 100 complete control
Outline: as §1

[9] = tested on: lambsquarters (Chenopodium album); test: Test C pre/postemergence; details: for Plant response rating, Lambsquarters: Preemergence
Outline: as §1

[10] = tested on: corn (Zea mays); test: Test C pre/postemergence; details: for Plant response rating (scale of 0 to 100), Corn: Postemergence; for Plant response rating, Corn: Preemergence
Outline: as §1

[11] = tested on: goosegrass (Eleusine indica); test: Test C pre/postemergence; details: for Plant response rating, Goosegrass: Preemergence
Outline: as §1

[12] = Postemergence, 125 g ai/ha, 0 to 100 scale (0 no effect, 100 complete control)
[13] = Postemergence, 500 g ai/ha, 0 to 100 scale (0 no effect, 100 complete control)
[14] = Preemergence, 125 g ai/ha, 0 to 100 scale where 0 is no effect and 100 is complete control, approximately ten days
[15] = Preemergence, 500 g ai/ha, 0 to 100 scale where 0 is no effect and 100 is complete control, approximately ten days
[16] = Postemergence, 125 g ai/ha, scale 0 to 100 (0 no effect, 100 complete control)
[17] = 16 g ai/ha, scale 0 to 100, 0 no effect, 100 complete control
[18] = 31 g ai/ha, scale 0 to 100, 0 no effect, 100 complete control
[19] = 62 g ai/ha, scale 0 to 100, 0 no effect, 100 complete control

Question: Which results are given for `Nc1nc(-c2ccc(Cl)cc2)nc(C(=O)[O-])c1Cl.[Na+]` [Compound 117]?
Answer: Plant response rating (scale of 0 to 100), Chickweed ([1]; 16 g ai/ha): 30; Plant response rating (scale of 0 to 100), Chickweed ([1]; 62 g ai/ha): 40; Plant response rating, Crabgrass [2, 12]: 75; Plant response rating, Crabgrass [2, 13]: 90; Plant response rating, Crabgrass [2, 14]: 45; Plant response rating, Crabgrass [2, 15]: 75; Plant response rating, Morningglory [3, 12]: 90; Plant response rating, Morningglory [3, 13]: 90; Plant response rating, Morningglory [3, 14]: 10; Plant response rating, Morningglory [3, 15]: 85; Plant response rating, Barnyardgrass [4, 12]: 85; Plant response rating, Barnyardgrass [4, 13]: 90; Plant response rating, Barnyardgrass [4, 14]: 25; Plant response rating, Barnyardgrass [4, 15]: 85; Plant response rating, Velvetleaf [5, 12]: 100; Plant response rating, Velvetleaf [5, 13]: 100; Plant response rating, Velvetleaf [5, 14]: 55; Plant response rating, Velvetleaf [5, 15]: 100; Plant response rating, Pigweed [6, 12]: 100; Plant response rating, Pigweed [6, 13]: 100; Plant response rating, Pigweed [6, 14]: 65; Plant response rating, Pigweed [6, 15]: 100; Plant response rating, Foxtail, Giant [7, 12]: 80; Plant response rating, Foxtail, Giant [7, 13]: 90; Plant response rating, Foxtail, Giant [7, 14]: 50; Plant response rating, Foxtail, Giant [7, 15]: 85; Plant response rating (scale of 0 to 100), Soybean ([8]; Postemergence, 16 g ai/ha): 100; Plant response rating (scale of 0 to 100), Soybean ([8]; Postemergence, 31 g ai/ha): 100; Plant response rating (scale of 0 to 100), Soybean ([8]; Postemergence, 62 g ai/ha): 100; Soybean plant response rating [8, 16]: 100; Plant response rating, Soybean ([8]; 16 g ai/ha): 85; Plant response rating, Soybean ([8]; 31 g ai/ha): 100; Plant response rating, Soybean ([8]; 62 g ai/ha): 100; Plant response rating (scale of 0 to 100), Lambsquarters ([9]; Postemergence, 16 g ai/ha): 95; Plant response rating (scale of 0 to 100), Lambsquarters ([9]; Postemergence, 31 g ai/ha): 95; Plant response rating (scale of 0 to 100), Lambsquarters ([9]; Postemergence, 62 g ai/ha): 95; Lambsquarters plant response rating [9, 16]: 95; Plant response rating, Lambsquarters [9, 17]: 20; Plant response rating, Lambsquarters [9, 18]: 100; Plant response rating, Lambsquarters [9, 19]: 100; Plant response rating, Lambsquarters ([9]; 125 g ai/ha, scale 0 to 100): 100; Plant response rating (scale of 0 to 100), Corn ([10]; 16 g ai/ha): 30; Plant response rating (scale of 0 to 100), Corn ([10]; 31 g ai/ha): 30; Plant response rating, Corn [10, 17]: 0; Plant response rating, Corn [10, 18]: 5; Plant response rating, Corn [10, 19]: 20; Plant response rating, Corn ([10]; 125 g ai/ha, scale 0 to 100): 25; Plant response rating (scale of 0 to 100), Goosegrass ([11]; Postemergence, 16 g ai/ha): 40; Plant response rating (scale of 0 to 100), Goosegrass ([11]; Postemergence, 31 g ai/ha): 40; Plant response rating (scale of 0 to 100), Goosegrass ([11]; Postemergence, 62 g ai/ha): 75; Goosegrass plant response rating [11, 16]: 80; Plant response rating, Goosegrass [11, 17]: 0; Plant response rating, Goosegrass [11, 18]: 0; Plant response rating, Goosegrass [11, 19]: 0; Plant response rating, Goosegrass ([11]; 125 g ai/ha, scale 0 to 100): 30
